Results on one molecule are retold here after patent publication US20040176350A1, “Carbapenem compound” (priority 2001, published 2004).

This series can be described thus: oral absorption test in rats: plasma concentration of meropenem produced by hydrolysis, by HPLC. Format: in vivo. The settings on record: 20 mg/kg oral, cilastatin 50 mg/kg pre-administered. On the procedure: An enzyme inhibitor (cilastatin) (50 mg/kg) was pre-administered to rats (3 per group) and the compound of the present invention (compound of Example 1, 20 mg/kg) was orally administered. The plasma concentration of meropenem produced by hydrolysis was measure at 0.125, 0.25, 0.5, 1.0, 1.5, 2.0 and 3.0 hr by HPLC and the area under plasma concentration-time curve (AUC) was determined.

SMILES strings stand for the structures.

For `CCCC(=O)OCOC(=O)N1C[C@@H](SC2=C(C(=O)OCOC(=O)C(C)(C)C)N3C(=O)[C@H]([C@@H](C)O)[C@H]3[C@H]2C)C[C@H]1C(=O)N(C)C` [Example 1, pivaloyloxymethyl (1R,5S,6S)-2-[(3S,5S)-(5-N,N-dimethylaminocarbonyl-1-butyryloxymethyloxycarbonyl)-pyrrolidin-3-ylthio]-6-[(1R)-1-hydroxyethyl]-1-methylcarbapen-2-em-3-carboxylate], the AUC0-3 hr (area under plasma concentration-time curve of meropenem) worked out at 5060 ng·h/mL. The Average plasma concentration was found to be 0.62 µg/mL (meropenem in plasma at 0.125 hr); 1.31 µg/mL (meropenem in plasma at 0.25 hr); 2.31 µg/mL (meropenem in plasma at 0.5 hr); 2.59 µg/mL (meropenem in plasma at 1.0 hr); 2.27 µg/mL (meropenem in plasma at 1.5 hr); 1.56 µg/mL (meropenem in plasma at 2.0 hr). Under “meropenem in plasma at 3.0 hr”, this molecule registered an Average plasma concentration of 0.55 µg/mL.
